The results in this text go back to article PMC8883495, “N-terminal phosphorylation regulates the activity of glycogen synthase kinase 3 from Plasmodium falciparum” (Biochemical Journal, 2022).

In assay [1] the target is T1, PfGSK3 (Plasmodium falciparum, UniProt O77344).
T1 construct: gene PF3D7_0312400
T1 sequence (O77344 1-440): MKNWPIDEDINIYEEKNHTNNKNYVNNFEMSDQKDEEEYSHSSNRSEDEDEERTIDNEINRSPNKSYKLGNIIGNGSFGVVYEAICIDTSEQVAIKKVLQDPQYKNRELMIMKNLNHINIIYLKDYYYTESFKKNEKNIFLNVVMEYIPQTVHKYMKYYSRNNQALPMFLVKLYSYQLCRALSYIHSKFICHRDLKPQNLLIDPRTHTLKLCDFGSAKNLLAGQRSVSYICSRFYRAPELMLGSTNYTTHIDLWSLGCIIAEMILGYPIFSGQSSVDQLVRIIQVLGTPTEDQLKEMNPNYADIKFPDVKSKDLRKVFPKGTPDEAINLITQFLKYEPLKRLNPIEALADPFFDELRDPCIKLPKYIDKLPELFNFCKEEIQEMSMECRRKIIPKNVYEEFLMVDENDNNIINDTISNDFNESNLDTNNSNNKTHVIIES
The experiment in a line: KinaseGlo Plus luminescence ATP consumption (autophosphorylation). Format: biochemical. As to conditions: 30 µM ATP, no peptide substrate; 20 mM MgCl2; pH 7.5; 30 °C. (Kinase-Glo reads ATP consumption through a luciferase reaction.)

Assay [2] concerns the target T1, PfGSK3. The experiment in a line: nanoDSF thermal shift. It counts as binding. As to conditions: 1 mg/ml protein; 6 mM dATP in Figure 2B; concentration series in supplement; heating 1 °C/min. (In DSF a fluorescence change marks the thermal transition of the protein.)

Structures are written as SMILES.

With `Nc1ncnc2c1ncn2[C@@H]1O[C@H](COP(=O)(O)OP(=O)(O)OP(=O)(O)O)[C@@H](O)[C@H]1O` [ATP], in assay [1], the “KinaseGlo Plus luminescence ATP consumption (autophosphorylation)” value is given as “The assay showed the consumption of ATP even in the absence of the substrate peptide”.
Take `Nc1ncnc2c1ncn2[C@H]1C[C@H](O)[C@@H](COP(=O)(O)OP(=O)(O)OP(=O)(O)O)O1` [dATP]: the Tm result in assay [2] is “dATP stabilizes PfGSK3, suggesting that it binds in the ATP binding pocket”.
